Experimental data reported in US11123355B2, “Antiviral benzyl-amine phosphodiamide compounds” (Merck Sharp & Dohme Corp., priority 2016, dated 2021).
Read-outs that look alike come from different tables or passages of the source.

Test system: HIV-1 (H9/IIB strain)
Assay: Multiple Round HIV-1 Infection Assay (Viking Assay) in MT4-GFP cells
Assay type: cell-based
Settings: inhibition of reproductive ratio R0
Method: Assessing antiviral potency in a Multiple Round HIV-1 Infection Assay (Viking Assay) The antiviral activity of the tenofovir prodrugs of the Examples herein was assessed in an assay that measures the rate of replication of HIV in cell culture, termed the Viking assay (VIral KINetics in Green cells) and performed as follows. HIV-1 replication was monitored using MT4-gag-GFP clone D3 (hereafter designated MT4-GFP), which are MT-4 cells modified to harbor a GFP reporter gene, the expression of which is dependent on the HIV-1 expressed proteins tat and rev. Productive infection of an MT4-GFP cell with HIV-1 results in GFP expression approximately 24 h post-infection. MT4-GFP cells were maintained at 37° C./5% CO2/90% relative humidity in RPMI 1640 supplemented with 10/o fetal bovine serum, 100 U/ml penicillin/streptomycin, and 400 μg/ml G418 to maintain the reporter gene. For infections, MT4-GFP cells were placed in the same medium lacking G418 and infected overnight with HIV-1 (H9/IIB strain) virus at an approximate multiplicity of infection of 0.01 in the same incubation conditions. Cells were then washed and re-suspended in either RPMI 1640 supplemented with 10% or 50% normal human serum (NHS) at 1.6×10^5 cells/mL (10% NHS or 50% NHS, respectively). Compound plates were prepared by dispensing compounds dissolved in DMSO into wells of 384 well poly-D-lysine-coated plates (0.2 μl/well) using an ECHO acoustic dispenser. Each compound was tested in a 10-point serial 3-fold dilution (typical final concentrations: 8.4 μM-0.42 nM). Controls included no inhibitor (DMSO only) and a combination of three antiviral agents (efavirenz, indinavir, an in-house integrase strand transfer inhibitor at final concentrations of 4 μM each). Cells were added (50 μL/well) to compound plates and the infected cells were maintained at 37° C./5% CO2/90% relative humidity.
Infected cells were quantified at two time points, ˜48 h and ˜72 h post-infection, by counting the number of green cells in each well using an Acumen eX3 scanner. The increase in the number of green cells over ˜24 h period gives the reproductive ratio, R0, which is typically 5-15 and has been shown experimentally to be in logarithmic phase (data not shown). Inhibition of R0 is calculated for each well, and IC50s determined by non-linear 4-parameter curve fitting.

[1] = MT4-GFP cells infected with HIV-1, 10% normal human serum, read-out: Viking, IC50 (10% NHS)
[2] = MT4-GFP cells infected with HIV-1, 50% normal human serum, read-out: Viking, IC50 (50% NHS)

CCCOC(=O)C(C)(C)NP(=O)(CO[C@H](C)Cn1cnc2c(N)ncnc21)N[C@H](c1cccc(OC)c1)C(F)(F)F (stereo partly drawn) [Example 25B, propyl 2-(((R)-((((R)-1-(6-amino-9H-purin-9-yl)propan-2-yl)oxy)methyl)(((R)-2,2,2-trifluoro-1-(3-methoxyphenyl)ethyl)amino)phosphoryl)a-mino)-2-methylpropanoate and propyl 2-(((S)-((((R)-1-(6-amino-9H-purin-9-yl)propan-2-yl)oxy)methyl)(((R)-2,2,2-trifluoro-1-(3-methoxyphenyl)ethyl)amino)phosphoryl)a-mino)-2-methylpropanoate]
IC50 [1]: 15 nM
IC50 [2]: 97 nM

CCCOC(=O)C(C)(C)N[P@@](=O)(CO[C@H](C)Cn1cnc2c(N)ncnc21)N[C@@H](c1cccc(OC)c1)C(F)(F)F [Example 28A, propyl 2-(((R)-((((R)-1-(6-amino-9H-purin-9-yl)propan-2-yl)oxy)methyl)(((S)-2,2,2-trifluoro-1-(3-methoxyphenyl)ethyl)amino)phosphoryl)a-mino)-2-methylpropanoate and propyl 2-(((S)-((((R)-1-(6-amino-9H-purin-9-yl)propan-2-yl)oxy)methyl)(((S)-2,2,2-trifluoro-1-(3-methoxyphenyl)ethyl)amino)phosphoryl)a-mino)-2-methylpropanoate]
IC50 [1]: 29 nM
IC50 [2]: 330 nM

CCCOC(=O)C(C)(C)N[P@@](=O)(CO[C@H](C)Cn1cnc2c(N)ncnc21)N[C@@H](c1cccc(OC)c1)C(F)(F)F [Example 28B, propyl 2-(((R)-((((R)-1-(6-amino-9H-purin-9-yl)propan-2-yl)oxy)methyl)(((S)-2,2,2-trifluoro-1-(3-methoxyphenyl)ethyl)amino)phosphoryl)a-mino)-2-methylpropanoate and propyl 2-(((S)-((((R)-1-(6-amino-9H-purin-9-yl)propan-2-yl)oxy)methyl)(((S)-2,2,2-trifluoro-1-(3-methoxyphenyl)ethyl)amino)phosphoryl)a-mino)-2-methylpropanoate]
IC50 [1]: 17 nM
IC50 [2]: 120 nM

CCCOC(=O)C(C)(C)N[P@@](=O)(CO[C@H](C)Cn1cnc2c(N)ncnc21)N[C@H](C)c1ccc(Cl)cc1C [Example 29A, propyl 2-(((R)-((((R)-1-(6-amino-9H-purin-9-yl)propan-2-yl)oxy)methyl)(((R)-1-(4-chloro-2-methylphenyl)ethyl)amino)phosphoryl)ami-no)-2-methylpropanoate and propyl 2-(((S)-((((R)-1-(6-amino-9H-purin-9-yl)propan-2-yl)oxy)methyl)(((R)-1-(4-chloro-2-methyphenyl)ethyl)amino)phosphoryl)ami-no)-2-methylpropanoate]
IC50 [1]: 260 nM
IC50 [2]: 2300 nM

CCCOC(=O)C(C)(C)NP(=O)(CO[C@H](C)Cn1cnc2c(N)ncnc21)N[C@@H](C)c1ccc(Cl)cc1C (stereo partly drawn) [Example 30A, propyl 2-(((R)-((((R)-1-(6-amino-9H-purin-9-yl)propan-2-yl)oxy)methyl)(((S)-1-(4-chloro-2-methylphenyl)ethyl)amino)phosphoryl)ami-no)-2-methylpropanoate and propyl 2-(((S)-((((R)-1-(6-amino-9H-purin-9-yl)propan-2-yl)oxy)methyl)(((S)-1-(4-chloro-2-methylphenyl)ethyl)amino)phosphoryl)ami-no)-2-methylpropanoate]
IC50 [1]: 24 nM
IC50 [2]: 350 nM

CCCOC(=O)C(C)(C)NP(=O)(CO[C@H](C)Cn1cnc2c(N)ncnc21)N[C@@H](C)c1ccc(Cl)cc1C (stereo partly drawn) [Example 30B, propyl 2-(((R)-((((R)-1-(6-amino-9H-purin-9-yl)propan-2-yl)oxy)methyl)(((S)-1-(4-chloro-2-methylphenyl)ethyl)amino)phosphoryl)ami-no)-2-methylpropanoate and propyl 2-(((S)-((((R)-1-(6-amino-9H-purin-9-yl)propan-2-yl)oxy)methyl)(((S)-1-(4-chloro-2-methylphenyl)ethyl)amino)phosphoryl)ami-no)-2-methylpropanoate]
IC50 [1]: 56 nM
IC50 [2]: 750 nM

CCCOC(=O)C(C)(C)NP(=O)(CO[C@H](C)Cn1cnc2c(N)ncnc21)N[C@H](C)c1ccc(C#N)cc1 (stereo partly drawn) [Example 31A, propyl 2-(((R)-((((R)-1-(6-amino-9H-purin-9-yl)propan-2-yl)oxy)methyl)(((R)-1-(4-cyanophenyl)ethyl)amino)phosphoryl)ami-no)-2-methylpropanoate and propyl 2-(((S)-((((R)-1-(6-amino-9H-purin-9-yl)propan-2-yl)oxy)methyl)(((R)-1-(4-cyanophenyl)ethyl)amino)phosphoryl)ami-no)-2-methylpropanoate]
IC50 [1]: 83 nM
IC50 [2]: 770 nM

CCCOC(=O)C(C)(C)NP(=O)(CO[C@H](C)Cn1cnc2c(N)ncnc21)N(C)Cc1ccc(C(C)C)cc1 (stereo partly drawn) [Example 32A, propyl 2-(((R)-((((R)-1-(6-amino-9H-purin-9-yl)propan-2-yl)oxy)methyl)((4-isopropylbenzyl)(methyl)amino)phos-phoryl)amino)-2-methylpropanoate and propyl 2-(((S)-((((R)-1-(6-amino-9H-purin-9-yl)propan-2-yl)oxy)methyl)((4-isopropylbenzyl)(methyl)amino)phos-phoryl)amino)-2-methylpropanoate]
IC50 [1]: 1.7 nM
IC50 [2]: 6.7 nM

CCCOC(=O)C(C)(C)NP(=O)(CO[C@H](C)Cn1cnc2c(N)ncnc21)N(C)Cc1ccc(C(C)C)cc1 (stereo partly drawn) [Example 32B, propyl 2-(((R)-((((R)-1-(6-amino-9H-purin-9-yl)propan-2-yl)oxy)methyl)((4-isopropylbenzyl)(methyl)amino)phos-phoryl)amino)-2-methylpropanoate and propyl 2-(((S)-((((R)-1-(6-amino-9H-purin-9-yl)propan-2-yl)oxy)methyl)((4-isopropylbenzyl)(methyl)amino)phos-phoryl)amino)-2-methylpropanoate]
IC50 [1]: 10 nM
IC50 [2]: 41 nM

CCCOC(=O)C(C)(C)N[P@](=O)(CO[C@H](C)Cn1cnc2c(N)ncnc21)N(C)[C@H](C)c1ccc(OC(F)(F)F)cc1 [Example 33A, propyl 2-(((R)-((((R)-1-(6-amino-9H-purin-9-yl)propan-2-yl)oxy)methyl)(methyl((R)-1-(4-(trifluoromethoxy)phenyl)ethyl)amino)phos-phoryl)amino)-2-methylpropanoate and propyl 2-(((S)-((((R)-1-(6-amino-9H-purin-9-yl)propan-2-yl)oxy)methyl)(methyl((R)-1-(4-(trifluoromethoxy)phenyl)ethyl)amino)phos-phoryl)amino)-2-methylpropanoate]
IC50 [1]: 25 nM
IC50 [2]: 84 nM

CC(C)OC(=O)C(C)(C)NP(=O)(CO[C@H](C)Cn1cnc2c(N)ncnc21)N[C@H](C)c1ccc(OC(F)(F)F)cc1 (stereo partly drawn) [Example 34A, isopropyl 2-(((R)-((((R)-1-(6-amino-9H-purin-9-yl)propan-2-yl)oxy)methyl)(((R)-1-(4-(trifluoromethoxy)phenyl)ethyl)amino)phos-phoryl)amino)-2-methylpropanoate and isopropyl 2-(((S)-((((R)-1-(6-amino-9H-purin-9-yl)propan-2-yl)oxy)methyl)(((R)-1-(4-(trifluoromethoxy)phenyl)ethyl)amino)phos-phoryl)amino)-2-methylpropanoate]
IC50 [1]: 760 nM
IC50 [2]: 4200 nM

CC(C)OC(=O)C(C)(C)N[P@@](=O)(CO[C@H](C)Cn1cnc2c(N)ncnc21)N[C@H](C)c1ccc(Cl)cc1 [Example 35A, isopropyl 2-(((R)-((((R)-1-(6-amino-9H-purin-9-yl)propan-2-yl)oxy)methyl)(((R)-1-(4-chlorophenyl)ethyl)amino)phosphoryl)ami-no)-2-methylpropanoate and isopropyl 2-(((S)-((((R)-1-(6-amino-9H-purin-9-yl)propan-2-yl)oxy)methyl)(((R)-1-(4-chlorophenyl)ethyl)amino)phosphoryl)ami-no)-2-methylpropanoate]
IC50 [1]: 280 nM
IC50 [2]: 1600 nM

CC(C)OC(=O)C(C)(C)N[P@@](=O)(CO[C@H](C)Cn1cnc2c(N)ncnc21)NC1(c2ccc(Cl)cc2)CC1 [Example 37A, isopropyl 2-(((R)-((((R)-1-(6-amino-9H-purin-9-yl)propan-2-yl)oxy)methyl)((1-(4-chlorophenyl)cyclopropyl)amino)phos-phoryl)amino)-2-methylpropanoate and isopropyl 2-(((S)-((((R)-1-(6-amino-9H-purin-9-yl)propan-2-yl)oxy)methyl)((1-(4-chlorophenyl)cyclopropyl)amino)phos-phoryl)amino)-2-methylpropanoate]
IC50 [1]: 110 nM
IC50 [2]: 720 nM
